Assay results: the supplement of paper PMC10307832

Columns and labels:
Assay in all cases: relative viability (nuclei count vs DMSO), 5 days (fraction); higher = more cells survive
ChaGo-K-1 = tested on: ChaGo-K-1
Method in brief: (§1)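 Nuclei were stained with Hoechst during a one-step fixation (final 0.05% Triton X-100, 1% formaldehyde, 1 ug/ml Hoechst) carried out 5 days after dosing, then counted on 4× images. The cells, lung cancer lines in 1536-well plates, had been dosed by pin tool the day after seeding with one drug alone or a fixed anchor-drug dose plus five library-drug doses (not always all listed) in √10 steps. Relative viability is the nuclei count in treated wells divided by that in vehicle wells, and each value is the median of duplicate plates.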

EMC-BAC-2 = tested on: EMC-BAC-2
Method in brief: as §1

EPLC-272H = tested on: EPLC-272H
Method in brief: as §1

HCC-78 = tested on: HCC-78
Method in brief: as §1

HCC-827 = tested on: HCC-827
Method in brief: as §1

LCLC-103H = tested on: LCLC-103H
Method in brief: as §1

LK-2 = tested on: LK-2
Method in brief: as §1

LOU-NH91 = tested on: LOU-NH91
Method in brief: as §1

LU99A = tested on: LU99A
Method in brief: as §1

LXF-289 = tested on: LXF-289
Method in brief: as §1

NCI-H1563 = tested on: NCI-H1563
Method in brief: as §1

NCI-H1666 = tested on: NCI-H1666
Method in brief: as §1

NCI-H1975 = tested on: NCI-H1975
Method in brief: as §1

NCI-H2085 = tested on: NCI-H2085
Method in brief: as §1

NCI-H2126 = tested on: NCI-H2126
Method in brief: as §1

NCI-H23 = tested on: NCI-H23
Method in brief: as §1

NCI-H2405 = tested on: NCI-H2405
Method in brief: as §1

NCI-H3122 = tested on: NCI-H3122
Method in brief: as §1

NCI-H322M = tested on: NCI-H322M
Method in brief: as §1

RERF-LC-KJ = tested on: RERF-LC-KJ
Method in brief: as §1

SK-LU-1 = tested on: SK-LU-1
Method in brief: as §1

SW 1573 = tested on: SW 1573
Method in brief: as §1

SW 900 = tested on: SW 900
Method in brief: as §1

## O=C(O)c1ccc(-c2c[nH]c3ncc(-c4ccccc4)cc23)cc1C1CCCC1 + Cc1nc(Nc2ncc(C(=O)Nc3c(C)cccc3Cl)s2)cc(N2CCN(CCO)CC2)n1 [Dasatinib] (partner 0.075 µM)
ChaGo-K-1; first compound 0.04 µM
  relative viability: 0.602
ChaGo-K-1; first compound 0.1265 µM
  relative viability: 0.632
ChaGo-K-1; first compound 0.4 µM
  relative viability: 0.518
ChaGo-K-1; first compound 1.265 µM
  relative viability: 0.604
EMC-BAC-2; first compound 0.04 µM
  relative viability: 0.285
EMC-BAC-2; first compound 0.1265 µM
  relative viability: 0.31
EMC-BAC-2; first compound 0.4 µM
  relative viability: 0.323
EMC-BAC-2; first compound 1.265 µM
  relative viability: 0.294
EPLC-272H; first compound 0.04 µM
  relative viability: 0.331
EPLC-272H; first compound 0.1265 µM
  relative viability: 0.416
EPLC-272H; first compound 0.4 µM
  relative viability: 0.328
EPLC-272H; first compound 1.265 µM
  relative viability: 0.337
HCC-78; first compound 0.1265 µM
  relative viability: 0.516
HCC-78; first compound 0.4 µM
  relative viability: 0.485
HCC-78; first compound 1.265 µM
  relative viability: 0.406
HCC-827; first compound 0.04 µM
  relative viability: 0.339
HCC-827; first compound 0.1265 µM
  relative viability: 0.294
HCC-827; first compound 0.4 µM
  relative viability: 0.348
HCC-827; first compound 1.265 µM
  relative viability: 0.381
LCLC-103H; first compound 0.04 µM
  relative viability: 0.481
LCLC-103H; first compound 0.1265 µM
  relative viability: 0.426
LCLC-103H; first compound 0.4 µM
  relative viability: 0.499
LCLC-103H; first compound 1.265 µM
  relative viability: 0.545
LK-2; first compound 0.04 µM
  relative viability: 0.362
LK-2; first compound 0.1265 µM
  relative viability: 0.282
LK-2; first compound 0.4 µM
  relative viability: 0.252
LK-2; first compound 1.265 µM
  relative viability: 0.274
LOU-NH91; first compound 0.04 µM
  relative viability: 0.573
LOU-NH91; first compound 0.1265 µM
  relative viability: 0.667
LOU-NH91; first compound 0.4 µM
  relative viability: 0.508
LOU-NH91; first compound 1.265 µM
  relative viability: 0.577
LU99A; first compound 0.04 µM
  relative viability: 0.599
LU99A; first compound 0.1265 µM
  relative viability: 0.748
LU99A; first compound 0.4 µM
  relative viability: 0.626
LU99A; first compound 1.265 µM
  relative viability: 0.448
LXF-289; first compound 0.04 µM
  relative viability: 0.214
LXF-289; first compound 0.1265 µM
  relative viability: 0.258
LXF-289; first compound 0.4 µM
  relative viability: 0.181
LXF-289; first compound 1.265 µM
  relative viability: 0.206
NCI-H1563; first compound 0.04 µM
  relative viability: 0.455
NCI-H1563; first compound 0.1265 µM
  relative viability: 0.514
NCI-H1563; first compound 0.4 µM
  relative viability: 0.48
NCI-H1563; first compound 1.265 µM
  relative viability: 0.48
NCI-H1666; first compound 0.04 µM
  relative viability: 0.858
NCI-H1666; first compound 0.1265 µM
  relative viability: 0.928
NCI-H1666; first compound 0.4 µM
  relative viability: 0.832
NCI-H1666; first compound 1.265 µM
  relative viability: 0.501
NCI-H1975; first compound 0.04 µM
  relative viability: 0.446
NCI-H1975; first compound 0.1265 µM
  relative viability: 0.356
NCI-H1975; first compound 0.4 µM
  relative viability: 0.408
NCI-H1975; first compound 1.265 µM
  relative viability: 0.376
NCI-H2085; first compound 0.04 µM
  relative viability: 0.259
NCI-H2085; first compound 0.1265 µM
  relative viability: 0.268
NCI-H2085; first compound 0.4 µM
  relative viability: 0.307
NCI-H2085; first compound 1.265 µM
  relative viability: 0.247
NCI-H2126; first compound 0.04 µM
  relative viability: 0.641
NCI-H2126; first compound 0.1265 µM
  relative viability: 0.634
NCI-H2126; first compound 0.4 µM
  relative viability: 0.642
NCI-H2126; first compound 1.265 µM
  relative viability: 0.488
NCI-H23; first compound 0.04 µM
  relative viability: 0.82
NCI-H23; first compound 0.1265 µM
  relative viability: 1.04
NCI-H23; first compound 0.4 µM
  relative viability: 0.729
NCI-H23; first compound 1.265 µM
  relative viability: 0.717
NCI-H2405; first compound 0.04 µM
  relative viability: 0.207
NCI-H2405; first compound 0.1265 µM
  relative viability: 0.253
NCI-H2405; first compound 0.4 µM
  relative viability: 0.191
NCI-H2405; first compound 1.265 µM
  relative viability: 0.191
NCI-H3122; first compound 0.04 µM
  relative viability: 0.927
NCI-H3122; first compound 0.1265 µM
  relative viability: 0.858
NCI-H3122; first compound 0.4 µM
  relative viability: 0.766
NCI-H3122; first compound 1.265 µM
  relative viability: 0.812
NCI-H322M; first compound 0.04 µM
  relative viability: 0.277
NCI-H322M; first compound 0.1265 µM
  relative viability: 0.267
NCI-H322M; first compound 0.4 µM
  relative viability: 0.239
NCI-H322M; first compound 1.265 µM
  relative viability: 0.237
RERF-LC-KJ; first compound 0.04 µM
  relative viability: 0.758
RERF-LC-KJ; first compound 0.1265 µM
  relative viability: 0.778
RERF-LC-KJ; first compound 0.4 µM
  relative viability: 0.783
RERF-LC-KJ; first compound 1.265 µM
  relative viability: 0.687
SK-LU-1; first compound 0.04 µM
  relative viability: 0.169
SK-LU-1; first compound 0.1265 µM
  relative viability: 0.194
SK-LU-1; first compound 0.4 µM
  relative viability: 0.157
SK-LU-1; first compound 1.265 µM
  relative viability: 0.165
SW 1573; first compound 0.04 µM
  relative viability: 0.398
SW 1573; first compound 0.1265 µM
  relative viability: 0.542
SW 1573; first compound 0.4 µM
  relative viability: 0.455
SW 1573; first compound 1.265 µM
  relative viability: 0.392
SW 900; first compound 0.04 µM
  relative viability: 0.577
SW 900; first compound 0.1265 µM
  relative viability: 0.712
SW 900; first compound 0.4 µM
  relative viability: 0.584
SW 900; first compound 1.265 µM
  relative viability: 0.52
